The values that follow come from PMC7872319, “Probing Biomolecular Interactions by a Pattern-Forming Peptide–Conjugate Sensor” (Bioconjugate Chemistry, 2020).

Series [1] concerns MinD. In words: Self-organization assay: ssDNA competition with preformed dsDNA-peptide conjugate. The format is biochemical, Escherichia coli. Conditions: 160 nM common 10 nt and 10 nt peptide conjugates preincubated with 1 μM MinD, competitor added in increasing amounts. The protocol:
Supported lipid bilayers (SLBs) were formed by fusion of SUVs in a 96-well plate with a glass bottom (Greiner Bio-One, Kremsmünster, Austria). Plates were cleaned for 30 s (30% power, 0.3 mbar) in a Zepto plasma cleaner (Diener electronic GmbH, Ebhausen, Germany) using oxygen as the process gas. Lipids were prepared as described above, except that sonication was used instead of freeze–thaw cycles to form SUVs. SUVs were added to each reaction chamber at a final concentration of 0.6 mg/mL and incubated for 2 min on a 37 °C warm heating block.
All self-organization assays were performed as previously described.[12],[30] […] For fluorescence imaging, MinD was doped with 30% ATTO655-KCK-MinD.
Imaging was performed on either a commercial Zeiss LSM800 or LSM780 confocal microscope each equipped with a Zeiss C-Apochromat 40X/1.20 water-immersion objective (Carl Zeiss AG, Oberkochen, Germany). ATTO655-KCK-MinD was excited at 640 nm and imaging was performed with a pinhole diameter of 1 Airy unit.
Image analysis was performed in Fiji with the Radial Profile plugin (https://imagej.nih.gov/ij/plugins/radial-profile.html) using custom macro scripts.[31],[32] To discriminate among different patterns and to further characterize them, two approaches were applied. In the first, autocorrelation analysis was performed for each image. A soft windowing function (raised-cosine window, 1 at the center and 0.75 at the edges) was applied to reduce edge effects. Then the autocorrelation image was computed, from which a radial amplitude profile was generated. The position of the first peak in the profile was identified as the correlation distance. Patterns were further analyzed by computing the percentage variation of the correlation intensity along the ring in the autocorrelation image, here defined as correlation dispersion. […] Once separated, the pattern types were further characterized on the basis of additional parameters. Specifically, for the quasi-stationary patterns we used the spot density, derived from the reciprocal of the squared correlation distance, or the correlation distance itself. […]

Series [2] deals with T1, MinD ATPase (Escherichia coli, UniProt P0AEZ3).
T1 sequence (P0AEZ3 1-270): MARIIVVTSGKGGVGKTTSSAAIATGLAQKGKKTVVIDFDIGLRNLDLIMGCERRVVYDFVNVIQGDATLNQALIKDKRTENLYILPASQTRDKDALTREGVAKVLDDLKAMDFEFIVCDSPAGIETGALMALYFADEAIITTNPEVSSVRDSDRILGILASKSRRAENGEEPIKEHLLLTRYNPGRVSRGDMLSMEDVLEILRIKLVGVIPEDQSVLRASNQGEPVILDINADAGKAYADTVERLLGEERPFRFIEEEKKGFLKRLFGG
The settings on record: read-out: IC50 of MinD ATPase activity; unconjugated ssDNA competitor added to MinD with common 10 nt + complementary 10 nt peptide conjugates; two independent assays, each three technical replicates; 95% CI (nM): 12-mer 60.3 to 81.9, 10-mer 393.6 to 772.0, 7-mer 1557.0 to 2730.0.

The subject of series [3] is MinD. The settings on record: 1 μM MinD, 500 nM MinE(13-31)-biotin, 90 nM divalent streptavidin.
In series [4] the target is T1, MinD ATPase. In words: MinD ATPase assay: free biotin competing with MinE(13-31)-biotin for divalent streptavidin. It counts as biochemical. Details: His (N); made in house; host or cells: E. coli BL21 (DE3).
The target of series [5] is T1, MinD ATPase. Conditions: 1 μM MinD, controls: four technical replicates, unconjugated peptide or single unhybridized conjugate.

pIC50: −log10 of the molar value. Entries after “also recorded” stand apart in the source; their conditions may differ. Where two headings read alike, the source gives them in different places.

Regarding “10-mer: competitor ssDNA 5`-AGATGTATTT-3`, 8 overlaps (DNA, backbone not given here)”, the “alteration/abolition of MinD patterns by ssDNA competitor” value was “abolition of MinD self-organization, but only at higher concentrations in comparison to the 12-mer; also recorded: altered wavelengths of the protein patterns, before eventually abolishing them completely” in series [1]; “alteration, and ultimately abolition, of protein patterns” in series [1] (listed as 10mer). The IC50 in series [2] amounted to 551 nM.

For “12-mer: competitor ssDNA 5`-CTAGATGTATAA-3`, 12 overlaps (DNA, backbone not given here)”, the “alteration/abolition of MinD patterns by ssDNA competitor” value in series [1] was “alteration, and ultimately abolition, of protein patterns; also recorded: clear transformation from propagating surface waves, through quasi-stationary patterns (reverse hexagons), to the complete abolition of protein patterns”. In series [2], the IC50 turned out to be 70.3 nM.

Regarding `O=C(O)CCCC[C@@H]1SC[C@@H]2NC(=O)N[C@@H]21` [free biotin, biotin], in series [3], the “free biotin concentration for complete abolition of patterns” value is on record as “approximately 50 nM”. Moreover, the pIC50 in series [4] is 8.06.

With “N-term-NTANIAKERLQIIVAERRRGSGK(N3)-C-term [MinE(13-31)]”, the “MinD ATPase stimulation (in words)” value in series [5] was “only able to slightly stimulate MinD’s ATPase activity”; in series [5] (listed as unconjugated peptide), “slightly elevated”.
